Patent US20160158200A1, “Combinations of Hepatitis C Virus Inhibitors” (priority 2013, published 2016)

system: HCV genotype-1a variant with glutamine 30 changed to glutamate in the NS5A protein; format: cell-based; settings: test compound titrated with BMS-790052 fixed at 200 nM; genotype 1a Q30E replicon
Summary of the method: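 Synergy was assessed by combining several fixed amounts of an NS5A-targeting compound with a titration of the second compound of interest.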

| SMILES | Fold-Synergistic 1a (Q30E) [fold] |
| --- | --- |
| C[C@H]1CCN(C(=O)C2CCC(F)(F)CC2)C1c1nc(-c2ccc(-c3ccc(-c4c[nH]c([C@@H]5[C@@H](C)CCN5C(=O)C5CCC(F)(F)CC5)n4)cc3)cc2)c[nH]1 (stereo partly drawn) [Compound W-188] | >10 |
| O=C(C(=O)N1CCCC1c1nc(-c2ccc(-c3ccc(-c4c[nH]c([C@@H]5CCCN5C(=O)C(=O)N5CCC(F)(F)CC5)n4)cc3)cc2)c[nH]1)N1CCC(F)(F)CC1 (stereo partly drawn) [Compound W-189] | >100 |
| CC(C)(C)[C@H](NC(=O)[C@]1(C)C[C@@H](F)CN1)c1nc(-c2ccc(-c3ccc(-c4c[nH]c([C@@H](NC(=O)[C@]5(C)C[C@@H](F)CN5)C(C)(C)C)n4)cc3)cc2)c[nH]1 [Compound W-209] | >100 |
| COC(=O)N1C[C@H](F)C[C@@]1(C)C(=O)N[C@H](c1nc(-c2ccc(-c3ccc(-c4c[nH]c([C@@H](NC(=O)[C@]5(C)C[C@@H](F)CN5C(=O)OC)C(C)(C)C)n4)cc3)cc2)c[nH]1)C(C)(C)C [Compound W-210] | >100 |
| CC(C)(C)OC(=O)N1CCC(C)(C)[C@@H]1C(=O)N[C@H](c1nc(-c2ccc(-c3ccc(-c4c[nH]c([C@@H](NC(=O)[C@@H]5N(C(=O)OC(C)(C)C)CCC5(C)C)C(C)(C)C)n4)cc3)cc2)c[nH]1)C(C)(C)C [Compound W-211] | >100 |
| CC(C)(C)OC(=O)N1CCC(C)(C)[C@H]1C(=O)N[C@H](c1nc(-c2ccc(-c3ccc(-c4c[nH]c([C@@H](NC(=O)[C@H]5N(C(=O)OC(C)(C)C)CCC5(C)C)C(C)(C)C)n4)cc3)cc2)c[nH]1)C(C)(C)C [Compound W-214] | >100 |
| CC1(C)CCN(C(=O)C2CCC(F)(F)CC2)C1c1nc(-c2ccc(-c3ccc(-c4c[nH]c(C5N(C(=O)C6CCC(F)(F)CC6)CCC5(C)C)n4)cc3)cc2)c[nH]1 (stereo not drawn) [Compound W-217] | >10 |
| CC1(C)CCN(C(=O)C(=O)N2CCC(F)(F)CC2)C1c1nc(-c2ccc(-c3ccc(-c4c[nH]c(C5N(C(=O)C(=O)N6CCC(F)(F)CC6)CCC5(C)C)n4)cc3)cc2)c[nH]1 (stereo not drawn) [Compound W-218] | >10 |
| CC(C)(C)C(=O)N1CCC(C)(C)C1c1nc(-c2ccc(-c3ccc(-c4c[nH]c(C5N(C(=O)C(C)(C)C)CCC5(C)C)n4)cc3)cc2)c[nH]1 (stereo not drawn) [Compound W-219] | >10 |
| CC1(C)CCN(C(=O)C2(N3CCC(F)(F)CC3)COC2)C1c1nc(-c2ccc(-c3ccc(-c4c[nH]c(C5N(C(=O)C6(N7CCC(F)(F)CC7)COC6)CCC5(C)C)n4)cc3)cc2)c[nH]1 (stereo not drawn) [Compound W-220] | >10 |
| CC1(C)CCN(C(=O)C(=O)N2CCC(F)(F)CC2)C1c1nc(-c2ccc(-c3ccc(-c4c[nH]c(C5N(C(=O)C(=O)N6CCC(F)(F)CC6)CCC5(C)C)n4)cc3)cc2)c[nH]1 (stereo not drawn) [Compound W-222] | >100 |
| CC1(C)CCN(C(=O)C(=O)c2ccccc2)C1c1nc(-c2ccc(-c3ccc(-c4c[nH]c(C5N(C(=O)C(=O)c6ccccc6)CCC5(C)C)n4)cc3)cc2)c[nH]1 (stereo not drawn) [Compound W-224] | >10 |
| CC1(C)CCN(C(=O)c2cccc3ccccc23)C1c1nc(-c2ccc(-c3ccc(-c4c[nH]c(C5N(C(=O)c6cccc7ccccc67)CCC5(C)C)n4)cc3)cc2)c[nH]1 (stereo not drawn) [Compound W-225] | <10 |
| CN(C(=O)OC(C)(C)C)C1(C(=O)N2CCC(C)(C)C2c2nc(-c3ccc(-c4ccc(-c5c[nH]c(C6N(C(=O)C7(N(C)C(=O)OC(C)(C)C)CC7)CCC6(C)C)n5)cc4)cc3)c[nH]2)CC1 (stereo not drawn) [Compound W-226] | >10 |
| CC1(C)CCN(C(=O)c2ccc(-c3ccccc3)cc2)C1c1nc(-c2ccc(-c3ccc(-c4c[nH]c(C5N(C(=O)c6ccc(-c7ccccc7)cc6)CCC5(C)C)n4)cc3)cc2)c[nH]1 (stereo not drawn) [Compound W-227] | >100 |
| CC1CN(C(C)(C)C(=O)N2CCC(C)(C)C2c2nc(-c3ccc(-c4ccc(-c5c[nH]c(C6N(C(=O)C(C)(C)N7CC(C)OC(C)C7)CCC6(C)C)n5)cc4)cc3)c[nH]2)CC(C)O1 (stereo not drawn) [Compound W-228] | <10 |
| CC(C)(C)OC(=O)NC1(C(=O)N[C@H](c2nc(-c3ccc(-c4ccc(-c5c[nH]c([C@@H](NC(=O)C6(NC(=O)OC(C)(C)C)CCC(=O)CC6)C(C)(C)C)n5)cc4)cc3)c[nH]2)C(C)(C)C)CCC(=O)CC1 [Compound W-233] | >100 |
| COC(C)(CO)C(=O)N[C@H](c1nc(-c2ccc(-c3ccc(-c4c[nH]c([C@@H](NC(=O)C(C)(CO)OC)C(C)(C)C)n4)cc3)cc2)c[nH]1)C(C)(C)C (stereo partly drawn) [Compound W-235] | >100 |
| CC(C)N(CC(F)(F)F)C(=O)C(=O)N1CCC(C)(C)C1c1nc(-c2ccc(-c3ccc(-c4c[nH]c(C5N(C(=O)C(=O)N(CC(F)(F)F)C(C)C)CCC5(C)C)n4)cc3)cc2)c[nH]1 (stereo not drawn) [Compound W-236] | >100 |
| CC(C)(C)C(=O)C(=O)N[C@H](c1nc(-c2ccc(-c3ccc(-c4c[nH]c([C@@H](NC(=O)C(=O)C(C)(C)C)C(C)(C)C)n4)cc3)cc2)c[nH]1)C(C)(C)C [Compound W-238] | >100 |

| SMILES | Fold-Synergistic 1a (Q30E) [fold] |
| --- | --- |
| C[C@@H]1CCN(C(=O)C(=O)N(C2CC2)C2CC2)C1c1nc(-c2ccc(-c3ccc(-c4c[nH]c(C5[C@H](C)CCN5C(=O)C(=O)N(C5CC5)C5CC5)n4)cc3)cc2)c[nH]1 (stereo partly drawn) [Compound W-241] | >10 |
| Cc1cc(-c2c[nH]c(C3CC[C@H](C)N3C(=O)C(=O)N3CCC(F)(F)CC3)n2)ccc1-c1ccc(-c2c[nH]c(C3CC[C@H](C)N3C(=O)C(=O)N3CCC(F)(F)CC3)n2)cc1 (stereo partly drawn) [Compound W-242] | >100 |
| O=C(C(=O)N1C(c2nc(-c3ccc(-c4ccc(-c5c[nH]c(C6CC7C[C@@H]7N6C(=O)C(=O)N6CCC(F)(F)CC6)n5)cc4)cc3)c[nH]2)C[C@@H]2CC21)N1CCC(F)(F)CC1 (stereo partly drawn) [Compound W-243] | >100 |
| C[C@H]1CCN(C(=O)C(=O)N(C2CC2)C2CC2)C1c1nc(-c2ccc(-c3ccc(-c4c[nH]c(C5[C@@H](C)CCN5C(=O)C(=O)N(C5CC5)C5CC5)n4)cc3)cc2)c[nH]1 (stereo partly drawn) [Compound W-244] | >100 |
| CC1(C)CCN(C(=O)C(=O)N2C(C)(C)CCCC2(C)C)C1c1nc(-c2ccc(-c3ccc(-c4c[nH]c(C5N(C(=O)C(=O)N6C(C)(C)CCCC6(C)C)CCC5(C)C)n4)cc3)cc2)c[nH]1.O=C(O)C(F)(F)F.O=C(O)C(F)(F)F (stereo not drawn) [Compound W-246] | >100 |
| CC(C)(C)[C@H](NC(=O)C(=O)N1C(C)(C)CCCC1(C)C)c1nc(-c2ccc(-c3ccc(-c4c[nH]c([C@@H](NC(=O)C(=O)N5C(C)(C)CCCC5(C)C)C(C)(C)C)n4)cc3)cc2)c[nH]1 [Compound W-248] | >100 |
| C[C@H]1CCN(C(=O)C(=O)N2C(C)(C)CCCC2(C)C)C1c1nc(-c2ccc(-c3ccc(-c4c[nH]c(C5[C@@H](C)CCN5C(=O)C(=O)N5C(C)(C)CCCC5(C)C)n4)cc3)cc2)c[nH]1 (stereo partly drawn) [Compound W-249] | >100 |
| CCOC(=O)CC1(C(=O)N[C@H](c2nc(-c3ccc(-c4ccc(-c5c[nH]c([C@@H](NC(=O)C6(NC(=O)OCC)CCCCC6)C(C)(C)C)n5)cc4)cc3)c[nH]2)C(C)(C)C)CCCCC1 [Compound W-250] | >100 |
| CCNC(=O)NC1(C(=O)N[C@H](c2nc(-c3ccc(-c4ccc(-c5c[nH]c([C@@H](NC(=O)C6(NC(=O)NCC)CCCCC6)C(C)(C)C)n5)cc4)cc3)c[nH]2)C(C)(C)C)CCCCC1 [Compound W-251] | >100 |
| CC(=O)NC1(C(=O)N[C@H](c2nc(-c3ccc(-c4ccc(-c5c[nH]c([C@@H](NC(=O)C6(NC(C)=O)CCCCC6)C(C)(C)C)n5)cc4)cc3)c[nH]2)C(C)(C)C)CCCCC1 [Compound W-252] | >100 |
| CCCCC(=O)NC1(C(=O)N[C@H](c2nc(-c3ccc(-c4ccc(-c5c[nH]c([C@@H](NC(=O)C6(NC(=O)CCCC)CCCCC6)C(C)(C)C)n5)cc4)cc3)c[nH]2)C(C)(C)C)CCCCC1 [Compound W-253] | >100 |
| CC(C)(C)CC(=O)NC1(C(=O)N[C@H](c2nc(-c3ccc(-c4ccc(-c5c[nH]c([C@@H](NC(=O)C6(NC(=O)CC(C)(C)C)CCCCC6)C(C)(C)C)n5)cc4)cc3)c[nH]2)C(C)(C)C)CCCCC1 [Compound W-254] | >100 |
| CC(C)(C)[C@H](NC(=O)C1(NC(=O)CC(F)(F)F)CCCCC1)c1nc(-c2ccc(-c3ccc(-c4c[nH]c([C@@H](NC(=O)C5(NC(=O)CC(F)(F)F)CCCCC5)C(C)(C)C)n4)cc3)cc2)c[nH]1 [Compound W-255] | >100 |
| CC(C)(C)C(=O)NC1(C(=O)N[C@H](c2nc(-c3ccc(-c4ccc(-c5c[nH]c([C@@H](NC(=O)C6(NC(=O)C(C)(C)C)CCCCC6)C(C)(C)C)n5)cc4)cc3)c[nH]2)C(C)(C)C)CCCCC1 [Compound W-262] | >100 |
| COCC(=O)NC1(C(=O)N[C@H](c2nc(-c3ccc(-c4ccc(-c5c[nH]c([C@@H](NC(=O)C6(NC(=O)COC)CCCCC6)C(C)(C)C)n5)cc4)cc3)c[nH]2)C(C)(C)C)CCCCC1 [Compound W-263] | >100 |
| CC(C)(C)[C@H](NC(=O)C1(NC(=O)C2CC2)CCCCC1)c1nc(-c2ccc(-c3ccc(-c4c[nH]c([C@@H](NC(=O)C5(NC(=O)C6CC6)CCCCC5)C(C)(C)C)n4)cc3)cc2)c[nH]1 [Compound W-264] | >100 |
| CCC(=O)NC1(C(=O)N[C@H](c2nc(-c3ccc(-c4ccc(-c5c[nH]c([C@@H](NC(=O)C6(NC(=O)CC)CCCCC6)C(C)(C)C)n5)cc4)cc3)c[nH]2)C(C)(C)C)CCCCC1 [Compound W-265] | >100 |
| CC(C)C(=O)NC1(C(=O)N[C@H](c2nc(-c3ccc(-c4ccc(-c5c[nH]c([C@@H](NC(=O)C6(NC(=O)C(C)C)CCCCC6)C(C)(C)C)n5)cc4)cc3)c[nH]2)C(C)(C)C)CCCCC1 [Compound W-266] | >100 |
| CN(C)C(=O)C(=O)NC1(C(=O)N[C@H](c2nc(-c3ccc(-c4ccc(-c5c[nH]c([C@@H](NC(=O)C6(NC(=O)C(=O)N(C)C)CCCCC6)C(C)(C)C)n5)cc4)cc3)c[nH]2)C(C)(C)C)CCCCC1 [Compound W-268] | >100 |
